From US20180360782A1, “METHOD OF MODULATING RIBONUCLEOTIDE REDUCTASE” (CASE WESTERN RESERVE UNIVERSITY, priority 2015, published 2018)
Like-named read-outs stand apart in the source and are kept apart here.

Assays:
Panc1 = assay: Time dependence of growth inhibitory activity, Panc1; type: cell-based; details: Homo sapiens, PANC-1
HCT116 = assay: Time dependence of growth inhibitory activity, HCT116; type: cell-based; details: Homo sapiens, HCT-116
Description: (§1) The growth inhibition assay was performed in the Preclinical Drug Testing Laboratory of the Case Comprehensive Cancer Center using a standardized protocol. Cell lines (human colon cancer HCT116 and human breast cancer MDA-MB-231 cells) were maintained in standard growth media; RPMI1640+10% FBS+2 mM glutamine+100U/ml penicillin, 100 ug/ml streptomycin and shown to be negative for mycoplasma contamination using the MycoAlert™ Mycoplasma Detection kit (Lonza, Basel, Switzerland). Cell identity was verified by Short Tandem Repeat (STR) testing performed using the Promega StemElite kit, in the Genetic Resources Core Facility (GRCF) at Johns Hopkins University.
(§2) For growth inhibition assays, cells were harvested by trypsinization and seeded into 96-well tissue culture plates at 2500 cells/mL. The following day an equal volume of 2×-drug containing medium was added to each well. […] Cell growth was assessed by measuring DNA content per well using the method of Labarca and Paigen. Dye fluorescence was measured in a Perkin-Elmer 1420 Victor3 Multilabel plate reader using 355 nm excitation and 460 nm emission.

[1] = tested on: MDA-MB-231, HCT116, A549 and Panc1 cell lines; assay: Detailed growth inhibition studies, median effect dose; type: cell-based; details: Homo sapiens, 72 h, read-out: median effect dose (Dm), growth inhibitory activity
Description: Cell were maintained in standard tissue culture media (RPMI1640, +10% fetal bovine serum, plus antibiotic) and grown in a standard humidified 5% CO2 incubator at 37° C. […] For moderate throughput screening (up to 120 drugs per experiment), cells were seeded into 96 well plates and allowed to attach overnight. The following day media was removed and replaced with fresh compound containing media. Each compound was tested against both cell lines at 3 concentrations; 1 μM, 10 μM and 50 μM, in duplicate. Cells were incubated with compound containing media for three days in a standard 5% CO2 tissue culture incubator. Cell growth was assessed after 3 days using the DNA dye binding assay, as originally described by LaBarca and Paigen. Relative growth was independently calculated for each cell line, based on DNA content from corresponding cells grown in control media plus diluent (DMSO). […] The following day media was removed and replaced with drug containing media.
Over 190 compounds were screened for their ability to inhibit growth and/or induce cell death in established cancer cell lines.

MDA-231 = assay: Time dependence of growth inhibitory activity, MDA-231; type: cell-based; details: Homo sapiens, MDA-MB-231
Description: as §1, §2

MDA-MB-231 = assay: Combination experiment: gemcitabine with sublethal compound 2; details: Homo sapiens, MDA-MB-231, read-out: Dm, Gemcitabine alone
select cancer cell lines = assay: Cellular IC50 of NSAAH library (Table 3); type: cell-based
Description: (§3) Cell were maintained in standard tissue culture media (RPMI1640, +10% fetal bovine serum, plus antibiotic) and grown in a standard humidified 5% CO2 incubator at 37° C. Cells were regularly tested using the MycoAlert detection kit (Lonza Biologics) and shown to be mycoplasma-free. Initial compound screening was performed using both MDA-MB-23 land HCT-116 cell lines. For moderate throughput screening (up to 120 drugs per experiment), cells were seeded into 96 well plates and allowed to attach overnight. The following day media was removed and replaced with fresh compound containing media. Each compound was tested against both cell lines at 3 concentrations; 1 μM, 10 μM and 50 μM, in duplicate. Cells were incubated with compound containing media for three days in a standard 5% CO2 tissue culture incubator. Cell growth was assessed after 3 days using the DNA dye binding assay, as originally described by LaBarca and Paigen. Relative growth was independently calculated for each cell line, based on DNA content from corresponding cells grown in control media plus diluent (DMSO). Additional growth inhibition experiments utilized either the DNA binding assay or the Promega CellTiter 96® (MTT reduction) assay, with similar results. For detailed growth inhibition assays, cells (1500-2500 depending on the growth characteristics of the cell line) were seeded in standard 96 well tissue culture plates and allowed to attach overnight. The following day media was removed and replaced with drug containing media. Each dose group consisted of 5 replicate wells, and results are reported a Relative Growth, calculated as DNA or MTT reduction per well, divided by the signal from untreated cells, both harvested 3 days after drug administration.

[2] = tested on: normal mobilized peripheral blood progenitor cells; assay: Blood progenitor colony forming unit (CFU) assay; type: cell-based, human; details: 14 days
Description: The CFU assay was performed in the Hematopoietic Biorepository and Cellular Therapy Core Facility of the Case Comprehensive Cancer Center using a standardized protocol.
Briefly, mobilized peripheral blood mononuclear cells were collected from healthy donors by apheresis after Neupogen stimulation under University Hospitals IRB Protocol #09-90-195. Excess discarded cells were diluted to 1(10^6) cells/mL in RPMI1640+15% fetal bovine serum, 100 U/mL penicillin, 100 μg/mL streptomycin and 50.4 units/ml GM-CSF. Drug solution was added to the cell suspension and 9× volume of complete methylcellulose (Methocult H4434+50 μM hemin.). The methylcellulose/cell suspension was aliquoted into triplicate 35-mm gridded tissue culture plates and incubated in a humidified 5% CO2 incubator at 37° C. for 14 days. Plates were counted visually and clusters of >50 cells were scored as surviving colonies.

[3] = Metal chelation by UV spectroscopy titration, Mg2+; type: physicochemical; details: 100 μM ligand, 10 mM ammonium acetate pH 7.0, metal 100 μM to 1 mM
Source text: There have been multiple reports of small molecule agents inhibiting RR through the scavenging of free radicals that are required for the reduction of nucleotide diphosphates. Nitric oxide and hydroxyurea (that quench the tyrosyl free radicals), and iron chelating small molecules such as desferrioxamine (that irreversibly chelate to Fe-(II) that is essential for -housing the free radicals) are a few examples. […] Therefore to test this hypothesis, the propensity of NSAAH-E-3A to bind to Mg^2+ and Fe^2+ (both present in the inhibition assay previously described) was determined by UV spectroscopy. In 10 mM ammonium acetate buffer (pH 7.0), a 100 μM solution of NSAAH-E-3A was titrated against FeCl2.6H2O and MgCl2.6H2O idependently at varying concentrations of metal ranging from 100 μM to 1 mM. The stoichiometry of NSAAH-E-3A : M^2+ tested were 1:1, 1:2, 1:3, 1:4, 1:5, 1:6, 1:7, 1:8, 1:9, and 1:10. A scanning UV […] spectrum was recorded between 200-800 nm at each concentration. Noticeable changes occurred -when NSAAH-E-3A was subjected to a titration with FeCl2.6H2O at concentrations of metal ranging from 600 μM to 1 mM. […] Similarly, a titration experiment was carried against Mg^2+ salt at concentrations of metal ranging from 100 μM to 1 mM at stoichiometry of 1:1, 1:2, 1:3, 1:4, 1:5, 1:6, 1:7, 1:8, 1:9, and 1:10.

[4] = tested on: MDA-MB-231 and HCT-116 cell lines; assay: Growth inhibition screening assay (In Cell IC50); type: cell-based, human; details: Homo sapiens, 72 h; 3 days with compound
Description: as §3

| Structure (SMILES) | IC50 (Panc1; Panc1, Drug Exposure 2 hr) [nM] | IC50 (Panc1; Panc1, Drug Exposure 6 hr) [nM] | IC50 (Panc1; Panc1, Drug Exposure 24 hr) [nM] | IC50 (Panc1; Panc1, Drug Exposure 72 hr) [nM] | IC50 (HCT116; HCT116, Drug Exposure 2 hr) [nM] | IC50 (HCT116; HCT116, Drug Exposure 6 hr) [nM] | IC50 (HCT116; HCT116, Drug Exposure 24 hr) [nM] | IC50 (HCT116; HCT116, Drug Exposure 72 hr) [nM] | IC50 ([1]; set of four cell lines, 3 days) [nM] | IC50 (MDA-231; MDA-231, Drug Exposure 2 hr) [nM] | IC50 (MDA-231; MDA-231, Drug Exposure 6 hr) [nM] | IC50 (MDA-231; MDA-231, Drug Exposure 24 hr) [nM] | IC50 (MDA-231; MDA-231, Drug Exposure 72 hr) [nM] | IC50 (MDA-MB-231) [nM] | IC50 (select cancer cell lines) [nM] | cytotoxicity against normal blood progenitor cells [2] | IC50 [1] [nM] | ligand:Mg^2+ stoichiometry at which the UV spectrum shows binding [3] | IC50 [4] [nM] |
| --- | --- | --- | --- | --- | --- | --- | --- | --- | --- | --- | --- | --- | --- | --- | --- | --- | --- | --- | --- |
| Nc1ccn([C@@H]2O[C@H](CO)[C@@H](O)C2(F)F)c(=O)n1 [Gemcitabine, reference compound] | 680 | 406 | 84 | 46 | 487 | 343 | 58 | 30 | 500 to 1000 | 1930 | 1540 | 274 | 100 | 920 |  |  |  |  |  |
| O=C(N/N=C/c1c(O)ccc2ccccc12)c1ccccc1O [compound 3, (E)-2-hydroxy-N′-((2-hydroxynaphthalenyl)methylene) benzohydrazide] | > 10000 | > 10000 | 898 | 442 | > 10000 | > 10000 | 572 | 221 |  | > 10000 | > 10000 | 658 | 498 |  | 0.225 | little measurable cytotoxicity | 500 to 1000 | no noticeable change | 380 |
